4 molecules from patent publication US20050267156A1, “Broadspectrum 2-amino-benzothiazole sulfonamide hiv protease inhibitors” (Tibotec Pharmaceuticals Ltd., priority 2002, published 2005) can be followed below.

Holding throughout (format): cell-based
One data set deals with HIV-1 strain LAI. Briefly: Cellular anti-HIV assay (MT4/MTT), wild type. The settings on record: Human immunodeficiency virus 1; wild type HIV-1 strain LAI, MT4 cells; read-out: WT (pEC50) (converted). As for the experimental part:
The compounds of the present invention were examined for anti-viral activity in a cellular assay. […] The cellular assay was performed according to the following procedure. HIV- or mock-infected MT4 cells were incubated for five days in the presence of various concentrations of the inhibitor. […] Cell viability is measured by measuring the concentration of MTT, a yellow, water soluble tetrazolium dye that is converted to a purple, water insoluble formazan in the mitochondria of living cells only. Upon solubilization of the resulting formazan crystals with isopropanol, the absorbance of the solution is monitored at 540 nm. The values correlate directly to the number of living cells remaining in the culture at the completion of the five-day incubation. The inhibitory activity of the compound was monitored on the virus-infected cells and was expressed as EC50 and EC90. These values represent the amount of the compound required to protect 50% and 90%, respectively, of the cells from the cytopathogenic effect of the virus. […] The selectivity index (SI) (ratio CC50/EC50) is an indication of the selectivity of the anti-HIV activity of the inhibitor. Wherever results are reported as e.g. pEC50 or pCC50 values, the result is expressed as the negative logarithm of the result expressed as EC50 or CC50 respectively.

Another data set deals with mutant HIV strain A. Briefly: microbe, parasite or virus in culture. The conditions noted are these: for fold resistance Strain A: FR=EC50 (mutant strain)/EC50 (HIV-1 strain LAI); for EC50: Human immunodeficiency virus 1, MT4, read-out: pEC50 Strain A, mutant HIV strain A, MT4 cells (converted). How it is done:
(§1) HIV- or mock-infected MT4 cells were incubated for five days in the presence of various concentrations of the inhibitor. […] Cell viability is measured by measuring the concentration of MTT, a yellow, water soluble tetrazolium dye that is converted to a purple, water insoluble formazan in the mitochondria of living cells only. Upon solubilization of the resulting formazan crystals with isopropanol, the absorbance of the solution is monitored at 540 nm. The values correlate directly to the number of living cells remaining in the culture at the completion of the five-day incubation. The inhibitory activity of the compound was monitored on the virus-infected cells and was expressed as EC50 and EC90. These values represent the amount of the compound required to protect 50% and 90%, respectively, of the cells from the cytopathogenic effect of the virus. […] The selectivity index (SI) (ratio CC50/EC50) is an indication of the selectivity of the anti-HIV activity of the inhibitor. Wherever results are reported as e.g. pEC50 or pCC50 values, the result is expressed as the negative logarithm of the result expressed as EC50 or CC50 respectively.

The next data set relates to mutant HIV strain B. Briefly: microbe, parasite or virus in culture. The conditions noted are these: for fold resistance Strain B: FR=EC50 (mutant strain)/EC50 (HIV-1 strain LAI); for EC50: Human immunodeficiency virus 1, MT4, read-out: pEC50 Strain B, mutant HIV strain B, MT4 cells (converted). How it is done: as §1
A further data set concerns mutant HIV strain C. Briefly: microbe, parasite or virus in culture. The conditions noted are these: for fold resistance Strain C: FR=EC50 (mutant strain)/EC50 (HIV-1 strain LAI); for EC50: Human immunodeficiency virus 1, MT4, read-out: pEC50 Strain C, mutant HIV strain C, MT4 cells (converted). As for the experimental part:
as §1

In the next data set the test system is mutant HIV strain D. Description: microbe, parasite or virus in culture. The settings on record: for fold resistance Strain D: FR=EC50 (mutant strain)/EC50 (HIV-1 strain LAI); for EC50: Human immunodeficiency virus 1, MT4, read-out: pEC50 Strain D, mutant HIV strain D, MT4 cells (converted). As for the experimental part: as §1
A further data set relates to mutant HIV strain E. Briefly: microbe, parasite or virus in culture. The settings on record: for fold resistance Strain E: FR=EC50 (mutant strain)/EC50 (HIV-1 strain LAI); for EC50: Human immunodeficiency virus 1, MT4, read-out: pEC50 Strain E, mutant HIV strain E, MT4 cells (converted). As for the experimental part:
as §1

Another data set relates to mutant HIV strain F. Briefly: microbe, parasite or virus in culture. The settings on record: for fold resistance Strain F: FR=EC50 (mutant strain)/EC50 (HIV-1 strain LAI); for EC50: Human immunodeficiency virus 1, MT4, read-out: pEC50 Strain F, mutant HIV strain F, MT4 cells (converted). As for the experimental part:
as §1

Data set [1] can be described thus: Toxicity on mock-infected cells (MTT). The settings on record: human. As for the experimental part:
HIV- or mock-infected MT4 cells were incubated for five days in the presence of various concentrations of the inhibitor. At the end of the incubation period, the replicating virus in the control cultures has killed all HIV-infected cells in the absence of any inhibitor. Cell viability is measured by measuring the concentration of MTT, a yellow, water soluble tetrazolium dye that is converted to a purple, water insoluble formazan in the mitochondria of living cells only. Upon solubilization of the resulting formazan crystals with isopropanol, the absorbance of the solution is monitored at 540 nm. The values correlate directly to the number of living cells remaining in the culture at the completion of the five-day incubation. The inhibitory activity of the compound was monitored on the virus-infected cells and was expressed as EC50 and EC90. These values represent the amount of the compound required to protect 50% and 90%, respectively, of the cells from the cytopathogenic effect of the virus. […] The selectivity index (SI) (ratio CC50/EC50) is an indication of the selectivity of the anti-HIV activity of the inhibitor. Wherever results are reported as e.g. pEC50 or pCC50 values, the result is expressed as the negative logarithm of the result expressed as EC50 or CC50 respectively.

In general, CC50 refers to the concentration at which the toxic effect on the cells reaches its halfway point. Consider `CC(C)CN(C[C@@H](O)[C@H](Cc1ccccc1)NC(=O)OCc1cncs1)S(=O)(=O)c1ccc2nc(N)sc2c1` [Compound 3, {(1S,2R)-3-[(2-amino-benzothiazole-6-sulfonyl)-isobutyl-amino]-1-benzyl-2-hydroxypropyl}-carbamic acid thiazol-5-ylmethyl ester], for which the EC50 in the data set with HIV-1 strain LAI was 4.57 nM; in the data set on mutant HIV strain A, 30.2 nM; in the data set with mutant HIV strain B, 8.91 nM; in the data set on mutant HIV strain C, 15.5 nM; with mutant HIV strain D it was 36.3 nM; in the data set on mutant HIV strain E, 21.9 nM. The EC50 in the data set on mutant HIV strain F was 53.7 nM. Also, in the data set on mutant HIV strain A, the “fold resistance Strain A” value turned out to be 6.6. Besides, the “fold resistance Strain B” value in the data set on mutant HIV strain B was 1.9. Moreover, the “fold resistance Strain C” value with mutant HIV strain C is recorded as 3.4. In addition, the “fold resistance Strain D” value with mutant HIV strain D stood at 7.9. Further, the “fold resistance Strain E” value with mutant HIV strain E is given as 4.8. Further, the “fold resistance Strain F” value in the data set on mutant HIV strain F amounted to 11.7. The CC50 at 5 days in data set [1] is 74100 nM.

In the case of `Cc1c(O)cccc1C(=O)N[C@@H](Cc1ccccc1)[C@H](O)CN(CC(C)C)S(=O)(=O)c1ccc2nc(N)sc2c1` [Compound 11, N-{(1S,2R)-3-[(2-amino-benzothiazole-6-sulfonyl)-isobutyl-amino]-1-benzyl-2-hydroxypropyl}-3-hydroxy-2-methyl-benzamide], the EC50 in the data set with HIV-1 strain LAI was 14.5 nM. Moreover, in the data set with mutant HIV strain A, the “fold resistance Strain A” value was determined as 7.8 and the EC50 was 112 nM. Moreover, in the data set on mutant HIV strain B, the “fold resistance Strain B” value came out at 0.5 and the EC50 was 7.24 nM. In addition, in the data set on mutant HIV strain C, the “fold resistance Strain C” value was found to be 0.5 and the EC50 was 7.59 nM. In the data set with mutant HIV strain D, the “fold resistance Strain D” value is 0.6 and the EC50 is 8.32 nM. In addition, in the data set on mutant HIV strain E, the “fold resistance Strain E” value came to 0.5 and the EC50 is 7.24 nM. Further, in the data set on mutant HIV strain F, the “fold resistance Strain F” value was found to be 7.1 and the EC50 is 102 nM. This molecule gave a CC50 at 5 days in data set [1] of 57500 nM.

For the molecule `Cc1c(N)cccc1C(=O)N[C@@H](Cc1ccccc1)[C@H](O)CN(CC(C)C)S(=O)(=O)c1ccc2nc(N)sc2c1` [Compound 10, 3-amino-N-{(1S,2R)-3-[(2-amino-benzothiazole-6-sulfonyl)-isobutyl-amino]-1-benzyl-2-hydroxypropyl}-2-methyl-benzamide], the EC50 in the data set on HIV-1 strain LAI was 9.12 nM. Moreover, in the data set on mutant HIV strain A, the “fold resistance Strain A” value was 9.3 and the EC50 is 85.1 nM. Besides, in the data set on mutant HIV strain B, the “fold resistance Strain B” value is listed as 1.0 and the EC50 was 9.33 nM. Further, in the data set on mutant HIV strain C, the “fold resistance Strain C” value is on record as 1.7 and the EC50 is 15.8 nM. In the data set with mutant HIV strain D, the “fold resistance Strain D” value is given as 2.5 and the EC50 was 22.9 nM. In addition, in the data set with mutant HIV strain E, the “fold resistance Strain E” value worked out at 1.4 and the EC50 is 13.2 nM. In the data set on mutant HIV strain F, the “fold resistance Strain F” value came to 9.5 and the EC50 was 87.1 nM. Also, the CC50 at 5 days in data set [1] was 72400 nM.

For the molecule `Cc1cccc(C)c1OCC(=O)N[C@@H](Cc1ccccc1)[C@H](O)CN(CC(C)C)S(=O)(=O)c1ccc2nc(N)sc2c1` [Compound 8, N-{(1S,2R)-3-[(2-amino-benzothiazole-6-sulfonyl)-isobutyl-amino]-1-benzyl-2-hydroxypropyl}-2-(2,6-dimethyl-phenoxy)-acetamide], the EC50 in the data set with HIV-1 strain LAI was 6.61 nM. In the data set with mutant HIV strain A, the “fold resistance Strain A” value came out at 4.8 and the EC50 is 31.6 nM. For the same molecule, in the data set on mutant HIV strain B, the “fold resistance Strain B” value worked out at 2.0 and the EC50 is 13.5 nM. Besides, in the data set on mutant HIV strain C, the “fold resistance Strain C” value turned out to be 3.9 and the EC50 was 25.7 nM. For the same molecule, in the data set on mutant HIV strain D, the “fold resistance Strain D” value stood at 5.1 and the EC50 was 33.9 nM. In addition, in the data set on mutant HIV strain E, the “fold resistance Strain E” value turned out to be 4.2 and the EC50 is 27.5 nM. Besides, in the data set on mutant HIV strain F, the “fold resistance Strain F” value amounted to 21.4 and the EC50 is 141 nM. This molecule also had a CC50 at 5 days in data set [1] above 10000 nM.
